# Like-named read-outs stand apart in the source and are kept apart here. Numbered stars: 1 amine (or outer) side, 2 acyl side, 3 side chain; on linkers, the order of the positions; unused ones are H or OH. Square brackets hold non-standard residues; d marks the D form. Side chains are listed from the residue outwards. Peptide text beside a SMILES is read from it. * marks the point of attachment. γGlu = O=C(O)[C@H](CCC(=O)[*:2])N[*:1]; αMeF = C[C@](N)(Cc1ccccc1)C(=O)O; αMeK = C[C@](N)(CCCCN)C(=O)O; Lauroyl = CCCCCCCCCCCC(=O)*; αMeS = C[C@](N)(CO)C(=O)O; AEEA = NCCOCCOCC(=O)O; Aib = CC(C)(N)C(=O)O
# Legend:
# Assay type in all cases: cell-based
# [1] = target: T1, human glucose-dependent insulinotropic peptide receptor (GIPR) (Homo sapiens, UniProt P48546); assay: cAMP assay, human GIPR cells
# T1 construct: expressed in transfected cells; host or cells: HEK293 cells or CHO cells
# T1 sequence (P48546 22-466): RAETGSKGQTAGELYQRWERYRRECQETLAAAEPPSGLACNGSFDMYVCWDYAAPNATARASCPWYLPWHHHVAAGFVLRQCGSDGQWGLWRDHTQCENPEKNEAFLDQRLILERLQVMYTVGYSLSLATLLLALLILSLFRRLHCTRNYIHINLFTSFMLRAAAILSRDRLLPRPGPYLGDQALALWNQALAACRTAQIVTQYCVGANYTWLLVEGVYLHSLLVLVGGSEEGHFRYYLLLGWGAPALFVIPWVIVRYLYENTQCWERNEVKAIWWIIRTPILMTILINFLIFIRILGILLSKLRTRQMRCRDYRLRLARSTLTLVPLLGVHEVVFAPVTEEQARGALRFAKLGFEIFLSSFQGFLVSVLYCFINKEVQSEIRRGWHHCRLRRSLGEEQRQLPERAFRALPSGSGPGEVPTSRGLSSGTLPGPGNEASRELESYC
# Outline: (§1)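 Peptide-stimulated cAMP measured by two-step HTRF after a 30 min room-temperature incubation with receptor-expressing cells (hGLP-1R, hGIPR at 1×10^5 cells/ml; hGCGR at 2×10^5 cells/ml). Duplicate dilutions; EC50 from 4-parameter logistic fit of % Delta F.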
# [2] = target: T2, human GLP-1 receptor (GLP-1R) (Homo sapiens, UniProt P43220); assay: cAMP assay, human GLP-1R cells
# T2 construct: expressed in transfected cells; host or cells: HEK293 cells or CHO cells
# T2 sequence (P43220 24-463): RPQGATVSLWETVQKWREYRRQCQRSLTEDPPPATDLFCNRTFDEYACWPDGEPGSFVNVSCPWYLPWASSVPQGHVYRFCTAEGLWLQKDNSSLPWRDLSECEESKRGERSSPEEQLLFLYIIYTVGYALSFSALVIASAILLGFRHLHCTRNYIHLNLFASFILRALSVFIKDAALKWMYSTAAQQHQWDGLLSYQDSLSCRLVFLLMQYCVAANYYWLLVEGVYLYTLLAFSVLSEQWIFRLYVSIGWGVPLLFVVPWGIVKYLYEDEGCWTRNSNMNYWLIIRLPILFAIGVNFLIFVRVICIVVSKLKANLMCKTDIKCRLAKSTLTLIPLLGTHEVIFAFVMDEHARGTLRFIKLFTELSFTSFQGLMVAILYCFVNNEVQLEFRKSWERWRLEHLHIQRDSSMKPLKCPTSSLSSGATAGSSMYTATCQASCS
# Outline: as §1
# GLP-1R (INS1e cells) = target: T3, GLP-1R (INS1e cells) (Rattus norvegicus, UniProt P32301); assay: INS1e assay, cAMP activity at GLP-1R
# T3 construct: endogenous in cells; host or cells: INS1e cells
# T3 sequence (P32301 22-463): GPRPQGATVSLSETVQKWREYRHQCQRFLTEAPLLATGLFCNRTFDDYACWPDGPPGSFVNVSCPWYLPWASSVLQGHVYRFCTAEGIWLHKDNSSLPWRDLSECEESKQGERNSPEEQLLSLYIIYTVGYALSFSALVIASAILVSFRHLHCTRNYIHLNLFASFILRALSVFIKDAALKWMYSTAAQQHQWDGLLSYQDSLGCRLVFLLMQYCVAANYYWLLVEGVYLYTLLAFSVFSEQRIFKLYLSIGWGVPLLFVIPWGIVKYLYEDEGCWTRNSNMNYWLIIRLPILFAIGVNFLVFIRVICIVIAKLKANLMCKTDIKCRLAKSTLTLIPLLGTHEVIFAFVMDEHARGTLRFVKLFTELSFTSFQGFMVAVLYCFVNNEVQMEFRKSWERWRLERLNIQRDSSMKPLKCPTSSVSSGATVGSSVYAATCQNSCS
# [3] = target: T4, human glucagon receptor (GCGR) (Homo sapiens, UniProt P47871); assay: cAMP assay, human GCGR cells
# T4 construct: expressed in transfected cells; host or cells: HEK293 cells or CHO cells
# T4 sequence (P47871 26-477): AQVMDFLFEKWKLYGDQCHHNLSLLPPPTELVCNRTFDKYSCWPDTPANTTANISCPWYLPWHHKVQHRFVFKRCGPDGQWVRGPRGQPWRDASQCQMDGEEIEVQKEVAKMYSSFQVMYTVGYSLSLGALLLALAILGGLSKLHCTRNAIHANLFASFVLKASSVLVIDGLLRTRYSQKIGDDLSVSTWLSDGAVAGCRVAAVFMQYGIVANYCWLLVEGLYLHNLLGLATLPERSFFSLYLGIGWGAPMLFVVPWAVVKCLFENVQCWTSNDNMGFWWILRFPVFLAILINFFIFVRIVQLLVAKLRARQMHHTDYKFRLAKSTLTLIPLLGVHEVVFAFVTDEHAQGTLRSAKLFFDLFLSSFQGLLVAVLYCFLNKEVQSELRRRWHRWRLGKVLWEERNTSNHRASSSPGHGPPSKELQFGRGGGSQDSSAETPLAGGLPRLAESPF
# Outline: as §1
# [4] = Table 8, substituted and mono-lipidated peptides, mean of n1 and n2, read-out: INS1e assay EC50 Mean pM GLP-1R
# [5] = Table 8, substituted and mono-lipidated peptides, replicate n1, read-out: INS1e assay EC50 GLP-1R n1
# [6] = Table 8, substituted and mono-lipidated peptides, replicate n2, read-out: INS1e assay EC50 GLP-1R n2
# [7] = Table 9, bis-lipidated peptides, first replicate, read-out: Primary assay EC50 GIP-R (n1)
# [8] = Table 9, bis-lipidated peptides, second replicate, read-out: Primary assay EC50 GIP-R (n2)
# [9] = Table 9, bis-lipidated peptides, mean of n1 and n2, read-out: Primary assay EC50 Mean pM GLP-1R
# [10] = Table 9, bis-lipidated peptides, replicate n1, read-out: Primary assay EC50 GLP-1R n1
# [11] = Table 9, bis-lipidated peptides, replicate n2, read-out: Primary assay EC50 GLP-1R n2
# [12] = Table 10, bis-lipidated peptides, mean of n1 and n2, read-out: INS1e assay EC50 Mean pM GLP-1R
# [13] = Table 10, bis-lipidated peptides, replicate n1, read-out: INS1e assay EC50 GLP-1R n1
# [14] = Table 10, bis-lipidated peptides, replicate n2, read-out: INS1e assay EC50 GLP-1R n2
# [15] = Table 9, bis-lipidated peptides, first replicate, read-out: Primary assay EC50 Gluc-R (n1)
# [16] = Table 9, bis-lipidated peptides, second replicate, read-out: Primary assay EC50 Gluc-R (n2)
Structure (SMILES),EC50 (GLP-1R (INS1e cells); [4]),EC50 (GLP-1R (INS1e cells); [5]),EC50 (GLP-1R (INS1e cells); [6]),"EC50 [1, 7]","EC50 [1, 8]","EC50 [2, 9]","EC50 [2, 10]","EC50 [2, 11]",EC50 (GLP-1R (INS1e cells); [12]),EC50 (GLP-1R (INS1e cells); [13]),EC50 (GLP-1R (INS1e cells); [14]),"EC50 [3, 15]","EC50 [3, 16]",also measured
CCCCCCCCCCCC(=O)NCCOCCOCC(=O)NCCCC[C@H](NC(=O)[C@@H](NC(=O)[C@@H](NC(=O)[C@](C)(Cc1ccccc1)NC(=O)[C@H](C)NC(=O)[C@@H](NC(=O)[C@](C)(Cc1ccccc1)NC(=O)[C@H](CCC(=O)O)NC(=O)[C@](C)(CCCCN)NC(=O)[C@H](C)NC(=O)[C@H](C)NC(=O)[C@H](CCC(=O)O)NC(=O)CNC(=O)[C@H](CCC(=O)O)NC(=O)[C@H](CC(C)C)NC(=O)[C@](C)(Cc1ccccc1)NC(=O)[C@H](CO)NC(=O)[C@](C)(CO)NC(=O)[C@@H](NC(=O)[C@H](CC(=O)O)NC(=O)[C@H](CO)NC(=O)[C@@H](NC(=O)[C@](C)(Cc1ccccc1)NC(=O)[C@H](CO)NC(=O)CNC(=O)[C@H](CCC(=O)O)NC(=O)C(C)(C)NC(=O)[C@@H](N)Cc1c[nH]cn1)[C@@H](C)O)C(C)C)[C@@H](C)CC)C(C)C)C(C)C)C(=O)NCC(=O)NCC(N)=O [compound 170],462 pM,548 pM,376 pM,,,,,,,,,,,"EC50 ([1]; cAMP activity, first determination (n1), read-out: Primary assay EC50 GIP-R): ≥ 28 nM; EC50 ([1]; cAMP activity, second determination (n2), read-out: Primary assay EC50 GIP-R): ≥ 28 nM; EC50 ([2]; cAMP activity, first determination (n1), read-out: Primary assay EC50 GLP-1R n1): 8 pM; EC50 ([2]; cAMP activity, mean of n1 and n2, read-out: Mean pM GLP-1R): 6.2 pM; EC50 ([2]; cAMP activity, second determination (n2), read-out: Primary assay EC50 GLP-1R n2): 4.5 pM; EC50 ([3]; cAMP activity, second determination (n2), read-out: Primary assay EC50 Gluc-R): ≥ 28 nM"
CC[C@H](C)[C@H](NC(=O)[C@](C)(Cc1ccccc1)NC(=O)[C@H](CCC(=O)O)NC(=O)[C@](C)(CCCCN)NC(=O)[C@H](C)NC(=O)[C@H](C)NC(=O)[C@H](CCC(=O)O)NC(=O)CNC(=O)[C@H](CCC(=O)O)NC(=O)[C@H](CC(C)C)NC(=O)[C@](C)(Cc1ccccc1)NC(=O)[C@H](CO)NC(=O)[C@](C)(CO)NC(=O)[C@@H](NC(=O)[C@H](CC(=O)O)NC(=O)[C@H](CO)NC(=O)[C@@H](NC(=O)[C@](C)(Cc1ccccc1)NC(=O)[C@H](CO)NC(=O)CNC(=O)[C@H](CCC(=O)O)NC(=O)C(C)(C)NC(=O)[C@@H](N)Cc1c[nH]cn1)[C@@H](C)O)C(C)C)C(=O)N[C@@H](C)C(=O)N[C@@](C)(Cc1ccccc1)C(=O)N[C@H](C(=O)N[C@H](C(=O)N[C@@H](CCCCNC(=O)COCCOCCNC(=O)COCCOCCNC(=O)COCCOCCNC(=O)CCCCCCCCCCCCCCCCC(=O)O)C(=O)NCC(=O)NCC(N)=O)C(C)C)C(C)C [compound 199],1460 pM,787 pM,2130 pM,,,,,,,,,,,"EC50 ([1]; first replicate, read-out: Primary assay EC50 GIP-R): ≥ 25 nM; EC50 ([1]; second replicate (n2), read-out: Primary assay EC50 GIP-R): ≥ 25 nM; EC50 ([2]; mean of n1 and n2, read-out: Mean pM GLP-1R): 18.3 pM; EC50 ([2]; replicate n1, read-out: Primary assay EC50 GLP-1R n1): 29 pM; EC50 ([2]; replicate n2, read-out: Primary assay EC50 GLP-1R n2): 7.5 pM; EC50 ([3]; second replicate (n2), read-out: Primary assay EC50 Gluc-R): ≥ 25 nM"
CCCCCCCCCCCC(=O)N[C@@H](CCC(=O)NCCOCCOCC(=O)NCCOCCOCC(=O)NCCCC[C@H](NC(=O)[C@H](CO)NC(=O)[C@](C)(CO)NC(=O)[C@@H](NC(=O)[C@H](CC(=O)O)NC(=O)[C@H](CO)NC(=O)[C@@H](NC(=O)[C@](C)(Cc1ccccc1)NC(=O)[C@H](CO)NC(=O)CNC(=O)[C@H](CCC(=O)O)NC(=O)C(C)(C)NC(=O)[C@@H](N)Cc1c[nH]cn1)[C@@H](C)O)C(C)C)C(=O)N[C@@H](CC(C)C)C(=O)N[C@@H](CCC(=O)O)C(=O)NCC(=O)N[C@@H](CCC(=O)O)C(=O)N[C@@H](C)C(=O)N[C@@H](C)C(=O)N[C@@](C)(CCCCN)C(=O)N[C@@H](CCC(=O)O)C(=O)N[C@@H](Cc1ccccc1)C(=O)N[C@H](C(=O)N[C@@H](C)C(=O)N[C@@H](Cc1c[nH]c2ccccc12)C(=O)N[C@@H](CCCCNC(=O)COCCOCCNC(=O)COCCOCCNC(=O)CC[C@H](NC(=O)CCCCCCCCCCC)C(=O)O)C(=O)N[C@H](C(=O)N[C@@H](CCC(=O)O)C(=O)NCC(=O)NCC(N)=O)C(C)C)[C@@H](C)CC)C(=O)O [compound 264] (H-H[Aib]EGS[αMeF]TSDV[αMeS]SK([AEEA-AEEA-γGlu-Lauroyl])LEGEAA[αMeK]EFIAWK([AEEA-AEEA-γGlu-Lauroyl])VEGG-NH2; N-terminus assumed),,,,≥ 22.6 nM,≥ 22.6 nM,12.8 pM,18.2 pM,7.37 pM,1030 pM,963 pM,1100 pM,≥ 22.6 nM,≥ 22.6 nM,
CCCCCCCCCCCC(=O)N[C@@H](CCC(=O)NCCOCCOCC(=O)NCCOCCOCC(=O)NCCCC[C@H](NC(=O)[C@H](Cc1ccc(O)cc1)NC(=O)[C@H](CO)NC(=O)[C@](C)(CO)NC(=O)[C@@H](NC(=O)[C@H](CC(=O)O)NC(=O)[C@H](CO)NC(=O)[C@@H](NC(=O)[C@](C)(Cc1ccccc1)NC(=O)[C@H](CO)NC(=O)CNC(=O)[C@H](CCC(=O)O)NC(=O)C(C)(C)NC(=O)[C@@H](N)Cc1c[nH]cn1)[C@@H](C)O)C(C)C)C(=O)N[C@@H](CCC(=O)O)C(=O)NCC(=O)N[C@@H](CCC(=O)O)C(=O)N[C@@H](C)C(=O)N[C@@H](C)C(=O)N[C@@](C)(CCCCN)C(=O)N[C@@H](CCC(=O)O)C(=O)N[C@@H](Cc1ccccc1)C(=O)N[C@H](C(=O)N[C@@H](CCCCNC(=O)COCCOCCNC(=O)COCCOCCNC(=O)CC[C@H](NC(=O)CCCCCCCCCCC)C(=O)O)C(=O)N[C@@H](Cc1c[nH]c2ccccc12)C(=O)N[C@H](C(=O)N[C@H](C(=O)N[C@@H](CCC(=O)O)C(=O)NCC(=O)NCC(N)=O)C(C)C)C(C)C)[C@@H](C)CC)C(=O)O [compound 268] (H-H[Aib]EGS[αMeF]TSDV[αMeS]SYK([AEEA-AEEA-γGlu-Lauroyl])EGEAA[αMeK]EFIK([AEEA-AEEA-γGlu-Lauroyl])WVVEGG-NH2; N-terminus assumed),,,,≥ 22.2 nM,≥ 22.2 nM,4.8 pM,4.46 pM,5.05 pM,1160 pM,1090 pM,1230 pM,≥ 22.2 nM,≥ 22.2 nM,

# Source: patent publication US20210221866A1, “PROTEASE-RESISTANT LIPIDATED GLP-1 ANALOGS” (MEDIMMUNE LIMITED, priority 2015, published 2021)
